Data reported in paper PMC8800111 (The Journal of Biological Chemistry, 2021).

Columns and labels:
Format in all cases: cell-based
[1] = target: proteins of U3A human fibrosarcoma cells (4462 proteins detected) (Homo sapiens, UniProt Q6UWP8); conditions: protein SBSN, U3A cells
[2] = target: proteins of U3A human fibrosarcoma cells (4462 proteins detected) (Homo sapiens, UniProt O00422); conditions: protein SAP18; soluble abundance after heat, U3A cells
[3] = target: proteins of U3A human fibrosarcoma cells (4462 proteins detected) (Homo sapiens, UniProt Q9NVR2); conditions: protein INTS10; U3A cells
Chain of proteins of U3A human fibrosarcoma cells (4462 proteins detected) (Homo sapiens, UniProt Q9NVR2) (Q9NVR2 whole entry): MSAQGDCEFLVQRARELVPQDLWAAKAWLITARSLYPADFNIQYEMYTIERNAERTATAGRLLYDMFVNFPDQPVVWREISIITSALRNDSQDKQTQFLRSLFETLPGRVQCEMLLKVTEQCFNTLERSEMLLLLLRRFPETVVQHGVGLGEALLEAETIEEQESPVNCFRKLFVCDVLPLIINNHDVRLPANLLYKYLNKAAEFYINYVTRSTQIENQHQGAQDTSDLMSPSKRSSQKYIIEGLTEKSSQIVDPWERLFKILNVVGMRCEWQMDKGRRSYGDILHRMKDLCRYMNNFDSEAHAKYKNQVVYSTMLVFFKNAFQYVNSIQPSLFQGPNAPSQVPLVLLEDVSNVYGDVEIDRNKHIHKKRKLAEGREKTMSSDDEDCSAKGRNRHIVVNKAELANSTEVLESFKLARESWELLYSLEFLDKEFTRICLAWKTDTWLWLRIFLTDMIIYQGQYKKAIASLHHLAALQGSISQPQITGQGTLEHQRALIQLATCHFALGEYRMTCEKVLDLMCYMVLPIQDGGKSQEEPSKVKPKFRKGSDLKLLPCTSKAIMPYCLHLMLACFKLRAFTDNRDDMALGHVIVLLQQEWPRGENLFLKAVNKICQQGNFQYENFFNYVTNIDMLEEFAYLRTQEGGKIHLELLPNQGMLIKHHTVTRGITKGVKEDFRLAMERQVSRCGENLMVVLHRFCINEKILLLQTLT

[4] = target: proteins of U3A human fibrosarcoma cells (4462 proteins detected) (Homo sapiens, UniProt P35606); conditions: protein COPB2; soluble abundance after heat, U3A cells
[5] = target: proteins of U3A human fibrosarcoma cells (4462 proteins detected) (Homo sapiens, UniProt Q9UNZ2); conditions: protein NSFL1C, U3A cells
[6] = target: proteins of U3A human fibrosarcoma cells (4462 proteins detected) (Homo sapiens, UniProt Q9UJX6); conditions: protein ANAPC2; soluble abundance after heat, U3A cells
[7] = target: proteins of U3A human fibrosarcoma cells (4462 proteins detected) (Homo sapiens, UniProt P02786); conditions: protein TFRC; U3A cells
[8] = target: proteins of U3A human fibrosarcoma cells (4462 proteins detected) (Homo sapiens, UniProt Q96FZ2); conditions: protein HMCES, U3A cells
[9] = target: proteins of U3A human fibrosarcoma cells (4462 proteins detected) (Homo sapiens, UniProt Q9NNW5); conditions: protein WDR6, U3A cells
[10] = target: proteins of U3A human fibrosarcoma cells (4462 proteins detected) (Homo sapiens, UniProt Q96PE7); conditions: protein MCEE; U3A, 10 μM, 2 h
Chain of proteins of U3A human fibrosarcoma cells (4462 proteins detected) (Homo sapiens, UniProt Q96PE7) (Q96PE7 37-176): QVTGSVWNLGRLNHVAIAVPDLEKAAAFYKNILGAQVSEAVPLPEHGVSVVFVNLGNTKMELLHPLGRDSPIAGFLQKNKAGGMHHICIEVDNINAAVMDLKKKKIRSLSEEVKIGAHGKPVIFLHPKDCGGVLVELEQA

[11] = target: proteins of U3A human fibrosarcoma cells (4462 proteins detected) (Homo sapiens, UniProt Q9BYM8); conditions: protein RBCK1; U3A, 10 μM, 2 h
[12] = target: proteins of U3A human fibrosarcoma cells (4462 proteins detected) (Homo sapiens, UniProt Q16666); conditions: protein IFI16; soluble abundance after heat, U3A cells
[13] = target: proteins of U3A human fibrosarcoma cells (4462 proteins detected) (Homo sapiens, UniProt Q12893); conditions: protein TMEM115; U3A, 10 μM, 2 h
Chain of proteins of U3A human fibrosarcoma cells (4462 proteins detected) (Homo sapiens, UniProt Q12893) (Q12893 whole entry): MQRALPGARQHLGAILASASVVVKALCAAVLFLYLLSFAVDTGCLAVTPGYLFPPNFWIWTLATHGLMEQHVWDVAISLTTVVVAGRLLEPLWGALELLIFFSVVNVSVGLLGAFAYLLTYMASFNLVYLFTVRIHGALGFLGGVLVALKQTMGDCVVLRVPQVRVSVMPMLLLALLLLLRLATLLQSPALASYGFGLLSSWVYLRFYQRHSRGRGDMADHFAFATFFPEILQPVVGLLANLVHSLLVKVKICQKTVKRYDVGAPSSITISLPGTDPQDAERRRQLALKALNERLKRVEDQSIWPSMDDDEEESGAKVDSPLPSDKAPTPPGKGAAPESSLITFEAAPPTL

[14] = target: proteins of U3A human fibrosarcoma cells (4462 proteins detected) (Homo sapiens, UniProt Q92888); conditions: protein ARHGEF1; U3A cells
[15] = target: proteins of U3A human fibrosarcoma cells (4462 proteins detected) (Homo sapiens, UniProt Q6N063); conditions: protein OGFOD2; U3A cells
[16] = target: proteins of U3A human fibrosarcoma cells (4462 proteins detected) (Homo sapiens, UniProt Q86V21); conditions: protein AACS, U3A cells
[17] = target: proteins of U3A human fibrosarcoma cells (4462 proteins detected) (Homo sapiens, UniProt P46087); conditions: protein NOP2; U3A cells
[18] = target: proteins of U3A human fibrosarcoma cells (4462 proteins detected) (Homo sapiens, UniProt Q9Y2A7); conditions: protein NCKAP1; U3A cells
Chain of proteins of U3A human fibrosarcoma cells (4462 proteins detected) (Homo sapiens, UniProt Q9Y2A7) (Q9Y2A7 whole entry): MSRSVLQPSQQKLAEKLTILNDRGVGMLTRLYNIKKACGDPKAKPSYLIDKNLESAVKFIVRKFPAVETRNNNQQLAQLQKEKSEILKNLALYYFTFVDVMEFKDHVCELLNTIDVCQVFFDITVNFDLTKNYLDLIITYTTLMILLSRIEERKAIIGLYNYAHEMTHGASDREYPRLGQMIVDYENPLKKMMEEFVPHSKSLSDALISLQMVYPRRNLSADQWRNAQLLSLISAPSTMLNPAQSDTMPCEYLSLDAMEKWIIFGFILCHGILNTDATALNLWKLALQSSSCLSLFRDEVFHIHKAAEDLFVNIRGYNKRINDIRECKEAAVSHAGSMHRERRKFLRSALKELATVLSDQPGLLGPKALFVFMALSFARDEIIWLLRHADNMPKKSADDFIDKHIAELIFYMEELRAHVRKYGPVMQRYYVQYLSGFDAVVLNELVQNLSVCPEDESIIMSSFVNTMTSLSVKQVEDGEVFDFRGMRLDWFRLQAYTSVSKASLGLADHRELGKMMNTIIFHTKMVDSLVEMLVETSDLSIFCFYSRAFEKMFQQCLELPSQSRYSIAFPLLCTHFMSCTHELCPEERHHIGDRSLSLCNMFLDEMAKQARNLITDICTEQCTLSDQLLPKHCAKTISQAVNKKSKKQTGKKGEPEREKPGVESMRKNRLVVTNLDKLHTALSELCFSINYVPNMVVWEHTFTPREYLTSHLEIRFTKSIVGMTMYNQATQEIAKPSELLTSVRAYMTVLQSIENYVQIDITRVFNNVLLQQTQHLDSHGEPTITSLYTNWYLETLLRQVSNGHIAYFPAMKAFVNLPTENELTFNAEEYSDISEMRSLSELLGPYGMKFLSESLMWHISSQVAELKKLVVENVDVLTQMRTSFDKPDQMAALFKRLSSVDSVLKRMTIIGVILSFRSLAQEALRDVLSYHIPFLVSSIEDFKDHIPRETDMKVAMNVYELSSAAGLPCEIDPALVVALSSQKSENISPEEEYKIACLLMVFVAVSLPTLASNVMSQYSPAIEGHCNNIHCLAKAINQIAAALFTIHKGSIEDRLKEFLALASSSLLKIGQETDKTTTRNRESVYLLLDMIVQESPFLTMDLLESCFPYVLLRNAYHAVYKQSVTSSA

[19] = target: proteins of U3A human fibrosarcoma cells (4462 proteins detected) (Homo sapiens, UniProt P49588); conditions: protein AARS, U3A cells
Chain of proteins of U3A human fibrosarcoma cells (4462 proteins detected) (Homo sapiens, UniProt P49588) (P49588 whole entry): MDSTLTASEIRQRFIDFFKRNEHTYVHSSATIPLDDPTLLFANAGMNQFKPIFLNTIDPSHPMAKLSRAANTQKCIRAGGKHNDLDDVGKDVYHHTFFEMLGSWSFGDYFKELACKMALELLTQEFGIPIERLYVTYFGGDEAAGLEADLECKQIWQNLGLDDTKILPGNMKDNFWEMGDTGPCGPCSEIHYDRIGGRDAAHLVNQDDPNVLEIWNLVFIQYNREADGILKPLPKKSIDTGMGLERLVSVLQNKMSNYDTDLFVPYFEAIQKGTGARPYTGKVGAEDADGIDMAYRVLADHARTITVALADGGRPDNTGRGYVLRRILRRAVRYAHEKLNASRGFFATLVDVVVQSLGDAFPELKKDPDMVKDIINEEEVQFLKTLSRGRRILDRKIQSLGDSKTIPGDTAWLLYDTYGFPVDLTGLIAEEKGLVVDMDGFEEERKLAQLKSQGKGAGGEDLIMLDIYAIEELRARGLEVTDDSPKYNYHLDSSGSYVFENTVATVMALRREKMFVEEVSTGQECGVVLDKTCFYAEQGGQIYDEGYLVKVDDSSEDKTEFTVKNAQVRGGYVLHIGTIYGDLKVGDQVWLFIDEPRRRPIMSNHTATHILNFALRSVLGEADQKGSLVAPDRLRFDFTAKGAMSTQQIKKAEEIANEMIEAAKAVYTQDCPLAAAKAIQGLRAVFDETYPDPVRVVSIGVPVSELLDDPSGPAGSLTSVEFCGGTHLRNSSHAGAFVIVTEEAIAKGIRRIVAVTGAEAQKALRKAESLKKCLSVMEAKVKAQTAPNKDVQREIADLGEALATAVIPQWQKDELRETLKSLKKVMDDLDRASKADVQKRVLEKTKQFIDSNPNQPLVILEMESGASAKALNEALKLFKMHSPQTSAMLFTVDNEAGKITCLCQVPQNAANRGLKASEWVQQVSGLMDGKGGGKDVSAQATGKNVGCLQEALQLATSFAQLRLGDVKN

[20] = target: proteins of U3A human fibrosarcoma cells (4462 proteins detected) (Homo sapiens, UniProt P35221); conditions: protein CTNNA1; U3A, 10 μM, 2 h
[21] = target: proteins of U3A human fibrosarcoma cells (4462 proteins detected) (Homo sapiens, UniProt Q9BUL5); conditions: protein PHF23, U3A cells
Chain of proteins of U3A human fibrosarcoma cells (4462 proteins detected) (Homo sapiens, UniProt Q9BUL5) (Q9BUL5 whole entry): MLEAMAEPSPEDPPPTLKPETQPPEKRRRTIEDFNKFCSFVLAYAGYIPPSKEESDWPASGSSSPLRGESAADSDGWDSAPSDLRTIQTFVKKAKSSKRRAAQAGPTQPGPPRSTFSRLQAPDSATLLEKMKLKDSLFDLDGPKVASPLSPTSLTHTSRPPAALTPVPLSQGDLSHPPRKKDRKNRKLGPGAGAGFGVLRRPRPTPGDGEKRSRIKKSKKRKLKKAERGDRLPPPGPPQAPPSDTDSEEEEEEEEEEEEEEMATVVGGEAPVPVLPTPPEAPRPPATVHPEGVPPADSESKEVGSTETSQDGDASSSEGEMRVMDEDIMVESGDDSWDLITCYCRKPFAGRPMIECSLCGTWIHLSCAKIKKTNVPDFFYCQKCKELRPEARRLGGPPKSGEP

[22] = target: proteins of U3A human fibrosarcoma cells (4462 proteins detected) (Homo sapiens, UniProt Q6P1N0); conditions: protein CC2D1A; soluble abundance after heat, U3A cells
[23] = target: proteins of U3A human fibrosarcoma cells (4462 proteins detected) (Homo sapiens, UniProt Q15370); conditions: protein TCEB2, U3A cells
Chain of proteins of U3A human fibrosarcoma cells (4462 proteins detected) (Homo sapiens, UniProt Q15370) (Q15370 whole entry): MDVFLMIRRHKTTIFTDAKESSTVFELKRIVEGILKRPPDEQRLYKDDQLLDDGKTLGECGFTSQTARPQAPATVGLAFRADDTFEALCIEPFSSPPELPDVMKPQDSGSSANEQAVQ

[24] = target: proteins of U3A human fibrosarcoma cells (4462 proteins detected) (Homo sapiens, UniProt P25440); conditions: protein BRD2; soluble abundance after heat, U3A cells
Chain of proteins of U3A human fibrosarcoma cells (4462 proteins detected) (Homo sapiens, UniProt P25440) (P25440 whole entry): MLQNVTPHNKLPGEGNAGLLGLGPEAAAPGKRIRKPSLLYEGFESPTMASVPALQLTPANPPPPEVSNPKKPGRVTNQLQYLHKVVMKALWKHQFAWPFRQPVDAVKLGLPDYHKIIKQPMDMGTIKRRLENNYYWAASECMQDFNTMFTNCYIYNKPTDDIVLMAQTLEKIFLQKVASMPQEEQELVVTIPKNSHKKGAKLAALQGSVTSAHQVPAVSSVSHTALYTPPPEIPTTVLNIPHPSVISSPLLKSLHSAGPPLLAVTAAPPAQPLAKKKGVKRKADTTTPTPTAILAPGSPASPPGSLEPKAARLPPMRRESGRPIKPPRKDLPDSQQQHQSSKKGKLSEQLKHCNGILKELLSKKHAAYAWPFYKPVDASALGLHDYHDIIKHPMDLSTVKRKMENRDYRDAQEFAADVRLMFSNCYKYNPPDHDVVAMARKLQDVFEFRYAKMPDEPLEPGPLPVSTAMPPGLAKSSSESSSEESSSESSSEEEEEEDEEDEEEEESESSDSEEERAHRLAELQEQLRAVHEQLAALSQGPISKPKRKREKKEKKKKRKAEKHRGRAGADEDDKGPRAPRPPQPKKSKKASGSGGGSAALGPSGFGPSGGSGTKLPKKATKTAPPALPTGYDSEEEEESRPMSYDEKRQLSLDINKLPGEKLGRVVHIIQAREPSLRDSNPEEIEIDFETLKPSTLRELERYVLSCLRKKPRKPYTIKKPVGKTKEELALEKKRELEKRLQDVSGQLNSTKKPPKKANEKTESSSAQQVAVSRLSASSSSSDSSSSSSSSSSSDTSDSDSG

[25] = target: proteins of U3A human fibrosarcoma cells (4462 proteins detected) (Homo sapiens, UniProt Q9HAN9); conditions: protein NMNAT1, U3A cells
[26] = target: proteins of U3A human fibrosarcoma cells (4462 proteins detected) (Homo sapiens, UniProt Q1ED39); conditions: protein KNOP1; U3A cells
[27] = target: proteins of U3A human fibrosarcoma cells (4462 proteins detected) (Homo sapiens, UniProt Q9NVA2); conditions: protein SEPT11, U3A cells
[28] = target: proteins of U3A human fibrosarcoma cells (4462 proteins detected) (Homo sapiens, UniProt Q9NPD8); conditions: protein UBE2T; soluble abundance after heat, U3A cells
Chain of proteins of U3A human fibrosarcoma cells (4462 proteins detected) (Homo sapiens, UniProt Q9NPD8) (Q9NPD8 whole entry): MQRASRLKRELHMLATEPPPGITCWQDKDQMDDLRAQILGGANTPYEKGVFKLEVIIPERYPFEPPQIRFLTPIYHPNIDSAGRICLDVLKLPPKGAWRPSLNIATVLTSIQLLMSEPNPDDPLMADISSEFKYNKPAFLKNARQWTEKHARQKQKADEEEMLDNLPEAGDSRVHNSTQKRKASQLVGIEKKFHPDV

[29] = target: proteins of U3A human fibrosarcoma cells (4462 proteins detected) (Homo sapiens, UniProt Q8NBN3); conditions: protein TMEM87A; U3A cells
[30] = target: proteins of U3A human fibrosarcoma cells (4462 proteins detected) (Homo sapiens, UniProt Q9NQT5); conditions: protein EXOSC3; U3A cells

Chain of proteins of U3A human fibrosarcoma cells (4462 proteins detected) (Homo sapiens, UniProt O00422) (O00422 whole entry): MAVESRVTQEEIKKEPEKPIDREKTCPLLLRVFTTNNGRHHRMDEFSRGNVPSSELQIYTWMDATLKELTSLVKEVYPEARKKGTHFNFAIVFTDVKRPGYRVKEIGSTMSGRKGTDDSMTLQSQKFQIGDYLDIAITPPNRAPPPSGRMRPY

In the case of CCc1nc(N)nc(N)c1-c1ccc(Cl)cc1 [pyrimethamine], the “Log2 (PYR/DMSO)” value [1] is reported as -0.05, the “Log2 (PYR/DMSO)” value [2] is reported as 0.14 and the “Log2 (PYR/DMSO)” value [3] is reported as 0.18. For the same compound, the “Log2 (PYR/DMSO)” value [4] was 0.15, the “Log2 (PYR/DMSO)” value [5] was -0.04 and the “Log2 (PYR/DMSO)” value [6] was 0.14. For the same compound, the “Log2 (PYR/DMSO)” value [7] was 0.16, the “Log2 (PYR/DMSO)” value [8] was -0.04 and the “Log2 (PYR/DMSO)” value [9] was -0.04. For the same compound, the “Log2 (PYR/DMSO), MCEE” value [10] was 0.25, the “Log2 (PYR/DMSO), RBCK1” value [11] was -0.16 and the “Log2 (PYR/DMSO)” value [12] was 0.13. For the same compound, the “Log2 (PYR/DMSO), TMEM115” value [13] was 0.38, the “Log2 (PYR/DMSO)” value [14] was 0.18 and the “Log2 (PYR/DMSO)” value [15] was 0.16. For the same compound, the “Log2 (PYR/DMSO)” value [16] was -0.04, the “Log2 (PYR/DMSO)” value [17] was 0.16 and the “Log2 (PYR/DMSO)” value [18] was 0.15. The “Log2 (PYR/DMSO)” value [19] was -0.04, the “Log2 (PYR/DMSO), CTNNA1” value [20] was 0.23 and the “Log2 (PYR/DMSO)” value [21] was -0.04. The “Log2 (PYR/DMSO)” value [22] was 0.15, the “Log2 (PYR/DMSO)” value [23] was -0.04 and the “Log2 (PYR/DMSO)” value [24] was 0.14. For the same compound, the “Log2 (PYR/DMSO)” value [25] was -0.04, the “Log2 (PYR/DMSO)” value [26] was 0.17 and the “Log2 (PYR/DMSO)” value [27] was -0.04. The “Log2 (PYR/DMSO)” value [28] was 0.13, the “Log2 (PYR/DMSO)” value [29] was 0.19 and the “Log2 (PYR/DMSO)” value [30] was 0.18.
